Measurements as given in US8084399B2, “Process for screening of a binding amphiphilic peptides specific for hairpin RNA” (priority 2009, dated 2011).
Where no end group is shown, it is not given here. [ ]: non-standard residue; d: D form. Orn = NCCC[C@H](N)C(=O)O; Dab = NCC[C@H](N)C(=O)O; Dap = NC[C@H](N)C(=O)O

Experiments:
[1] = target: RRE hairpin RNA; assay: Fluorescence anisotropy competition with Rev-N-rhodamine probe, binding to RRE hairpin RNA; set-up: species or system HIV; details: 20° C., pH 7.4, read-out: Dissociation constant, RRE
Protocol: (§1) Binding force to each target hairpin RNA (IRES, RRE, TAR and 16S A-site) was measured by fluorescence polarization using alanine scanned peptide library (1b-1h).
(§2) Particularly, […] of each target RNA was prepared at the concentration of 10 mM, which stood at 65° C. for 10 minutes and then cooled down slowly at room temperature, leading to folding. The amphiphilic peptide was prepared respectively at the concentration of […], which were maintained at 0° C. As a probe, rev peptide labeled with rhodamine (Rev-N-rhodamine) emitting […] fluorescence was prepared at the concentration of 10 mM. Buffer was composed of 140 mM NaCl, 5 mM KCl, 1 mM MgCl2, and 20 mM HEPES (N-2-Hydroxyethylpiperazine-N′-2-Ethanesulfonic Acid, pH 7.4). Fluorescence Anisotropy was measured using AMINCO-Bowman Series Luminescence Spectrometer at 20° C. Ten nM of the probe was added in […] of buffer, to which target RNA was added to induce interaction between the probe and the target RNA. At that time, anisotropy value increased. Then, the synthesized peptide competing with the probe for binding site was added thereto with increasing the concentration slowly. Changes of fluorescence polarization were measured until fluorescence polarization reached as low as the beginning. Considering the concentration and amount of the peptide added, binding force to target RNA was calculated. That is, the binding strength between target RNA and peptide was determined according to the following KaleidaGraph. [Peptide]=Kd(Amax−A)/[Kd(A−A0)+1]×[RNA]−Kd(A−A0)^2[Probe]0/(Amax−A)(Amax−A0)
(§3) Herein, [Peptide] indicates the concentration of peptide, [RNA] indicates the concentration of target RNA, and [Probe]0 indicates the concentration of probe. A is the value of fluorescence anisotropy of sample, Amax is the value of totally bound tracer, and A0 is the value of totally free tracer.

[2] = target: TAR hairpin RNA; assay: Fluorescence anisotropy competition with Rev-N-rhodamine probe, binding to TAR hairpin RNA; set-up: species or system HIV; details: fluorescence anisotropy, 20° C., pH 7.4; read-out: Dissociation constant, TAR
Protocol: as §1, §2, §3

[3] = target: 16S ribosomal RNA A-site; assay: Fluorescence anisotropy competition with Rev-N-rhodamine probe, binding to 16S A-site; details: 20° C., pH 7.4, read-out: Dissociation constant, 16S A-site
Protocol: as §1, §2, §3

[4] = test system: IRES domain IV hairpin; assay: Fluorescence anisotropy competition with Rev-N-rhodamine probe, binding to IRES hairpin; set-up: species or system HCV; details: for differentiation coefficient (IRES): (mean Kd to other hairpin RNA)/(Kd to one hairpin RNA); for Kd: fluorescence anisotropy, 20° C., pH 7.4, read-out: Dissociation constant, IRES; for binding strength to IRES, in words: compared with the original peptide
Protocol: as §1, §2, §3

[5] = Circular dichroism (CD), percentage of alpha-helix; format: physicochemical; details: CD at 20° C., condition not given; for Alpha-helical rate (%), second value of pair: value after the slash; for Alpha-helical rate (%), first value of pair: value before the slash
Protocol: To investigate alpha-helix of the amphiphilic peptide (1a-1h), circular dichroism (CD) was performed. Particularly, CD was measured at 20° C. by using JASCO model J715 spectropolarimeter. Scanning was performed at 190-250 nm three times (bandwidth: 1 nm, datapitch: 0.5 nm, speed: 100 nm/min), which were averaged to obtain CD data. Spectrum was corrected by measuring background spectrum. CD signal was recorded after modulating thereof with mean residue ellipticity [Q]. Percentage (%) of alpha-helix(fn) was calculated by the following formula. [Q]=Qobs[MRW/(10lc)]
MRW=mean residue weight (dividing molecular weight by the number of peptide bond, l=pathway length (cm), c=concentration (mg/mL). fn=([Q]222−[Q]coil)/([Q]helix−[Q]coil) [Q]helix=−40,000[…]+100t [Q]coil=640−45t
[Q]222=mean residue ellipticity at 222 nm (deg cm2 mol-1), [Q]helix=ellipticity of peptide having complete helical structure, [Q]coil=ellipticity of peptide having complete random coil structure, n=number of amino acid, t=° C.

Substance | Kd [1] | Kd [2] | Kd [3] | differentiation coefficient (IRES) [4] | Kd [4] | Alpha-helical rate (%), second value of pair [5] | Alpha-helical rate (%), first value of pair [5] | binding strength to IRES, in words [4]
LKALLKLLKKLLKLKG [1c, alanine scanned first generation peptide] | 56 nM | 87 nM | 92 nM | 1.3 | 62 nM | 42% | 10% | –
LKKLLOrnLLKKLLKLAG (LKKLL[Orn]LLKKLLKLAG-NH2; N-terminus assumed; SMILES CC(C)C[C@H](NC(=O)[C@H](CCCCN)NC(=O)[C@H](CC(C)C)NC(=O)[C@H](CC(C)C)NC(=O)[C@H](CCCCN)NC(=O)[C@H](CCCCN)NC(=O)[C@H](CC(C)C)NC(=O)[C@H](CC(C)C)NC(=O)[C@H](CCCN)NC(=O)[C@H](CC(C)C)NC(=O)[C@H](CC(C)C)NC(=O)[C@H](CCCCN)NC(=O)[C@H](CCCCN)NC(=O)[C@@H](N)CC(C)C)C(=O)N[C@@H](C)C(=O)NCC(N)=O) [2a, second generation peptide, hydrophilic face modified] | 17 nM | 14 nM | 15 nM | 2.5 | 6.1 nM | 82% | 13% | –
LKKLLDabLLKKLLKLAG (LKKLL[Dab]LLKKLLKLAG-NH2; N-terminus assumed; SMILES CC(C)C[C@H](NC(=O)[C@H](CCCCN)NC(=O)[C@H](CC(C)C)NC(=O)[C@H](CC(C)C)NC(=O)[C@H](CCCCN)NC(=O)[C@H](CCCCN)NC(=O)[C@H](CC(C)C)NC(=O)[C@H](CC(C)C)NC(=O)[C@H](CCN)NC(=O)[C@H](CC(C)C)NC(=O)[C@H](CC(C)C)NC(=O)[C@H](CCCCN)NC(=O)[C@H](CCCCN)NC(=O)[C@@H](N)CC(C)C)C(=O)N[C@@H](C)C(=O)NCC(N)=O) [2b, second generation peptide, hydrophilic face modified] | 10 nM | 7.3 nM | 13 nM | 6.4 | 1.6 nM | 63% | 23% | –
LKKLLKLLDabKLLKLAG (LKKLLKLL[Dab]KLLKLAG-NH2; N-terminus assumed; SMILES CC(C)C[C@H](NC(=O)[C@H](CCCCN)NC(=O)[C@H](CC(C)C)NC(=O)[C@H](CC(C)C)NC(=O)[C@H](CCCCN)NC(=O)[C@H](CCN)NC(=O)[C@H](CC(C)C)NC(=O)[C@H](CC(C)C)NC(=O)[C@H](CCCCN)NC(=O)[C@H](CC(C)C)NC(=O)[C@H](CC(C)C)NC(=O)[C@H](CCCCN)NC(=O)[C@H](CCCCN)NC(=O)[C@@H](N)CC(C)C)C(=O)N[C@@H](C)C(=O)NCC(N)=O) [2e, second generation peptide, hydrophilic face modified] | 23 nM | 28 nM | 17 nM | 6.5 | 3.5 nM | 57% | 43% | –
LKKLLKLLKKWLKLAG [2s, tryptophan scanned second generation peptide] | 9.5 nM | 43 nM | 24 nM | 5.8 | 4.4 nM | 60% | 27% | –
LKKLLKLLKALLKLKG [1f, alanine scanned first generation peptide] | 92 nM | 25 nM | 64 nM | 1.8 | 33 nM | 45% | 17% | –
LKKLLKLLKKLWKLAG [2t, tryptophan scanned second generation peptide] | 13 nM | 10 nM | 17 nM | 5.9 | 2.3 nM | 58% | 12% | –
LKKLLKWLKKLLKLAG [2q, tryptophan scanned second generation peptide] | 1.2 nM | 21 nM | 17 nM | 15 | 0.87 nM | 71% | 19% | significantly increased
LKKLLDabLLKKLLDapLAG (LKKLL[Dab]LLKKLL[Dap]LAG-NH2; N-terminus assumed; SMILES CC(C)C[C@H](NC(=O)[C@H](CN)NC(=O)[C@H](CC(C)C)NC(=O)[C@H](CC(C)C)NC(=O)[C@H](CCCCN)NC(=O)[C@H](CCCCN)NC(=O)[C@H](CC(C)C)NC(=O)[C@H](CC(C)C)NC(=O)[C@H](CCN)NC(=O)[C@H](CC(C)C)NC(=O)[C@H](CC(C)C)NC(=O)[C@H](CCCCN)NC(=O)[C@H](CCCCN)NC(=O)[C@@H](N)CC(C)C)C(=O)N[C@@H](C)C(=O)NCC(N)=O) [2l, second generation peptide, hydrophilic face modified] | 14 nM | 16 nM | 14 nM | 13 | 1.1 nM | 50% | 40% | –
WKKLLKLLKKLLKLAG [2n, tryptophan scanned second generation peptide] | 2.5 nM | 2 nM | 0.76 nM | 2.4 | 0.74 nM | 65% | 48% | significantly increased
LKKLLKLLKKLLDabLAG (LKKLLKLLKKLL[Dab]LAG-NH2; N-terminus assumed; SMILES CC(C)C[C@H](NC(=O)[C@H](CCN)NC(=O)[C@H](CC(C)C)NC(=O)[C@H](CC(C)C)NC(=O)[C@H](CCCCN)NC(=O)[C@H](CCCCN)NC(=O)[C@H](CC(C)C)NC(=O)[C@H](CC(C)C)NC(=O)[C@H](CCCCN)NC(=O)[C@H](CC(C)C)NC(=O)[C@H](CC(C)C)NC(=O)[C@H](CCCCN)NC(=O)[C@H](CCCCN)NC(=O)[C@@H](N)CC(C)C)C(=O)N[C@@H](C)C(=O)NCC(N)=O) [2h, second generation peptide, hydrophilic face modified] | 14 nM | 12 nM | 25 nM | 2.0 | 8.7 nM | 34% | 24% | –
LKKLLKLLKKLLOrnLAG (LKKLLKLLKKLL[Orn]LAG-NH2; N-terminus assumed; SMILES CC(C)C[C@H](NC(=O)[C@H](CCCN)NC(=O)[C@H](CC(C)C)NC(=O)[C@H](CC(C)C)NC(=O)[C@H](CCCCN)NC(=O)[C@H](CCCCN)NC(=O)[C@H](CC(C)C)NC(=O)[C@H](CC(C)C)NC(=O)[C@H](CCCCN)NC(=O)[C@H](CC(C)C)NC(=O)[C@H](CC(C)C)NC(=O)[C@H](CCCCN)NC(=O)[C@H](CCCCN)NC(=O)[C@@H](N)CC(C)C)C(=O)N[C@@H](C)C(=O)NCC(N)=O) [2g, second generation peptide, hydrophilic face modified] | 11 nM | 9 nM | 23 nM | 3.3 | 4.4 nM | 53% | 36% | –
LKKWLKLLKKLLKLAG [2o, tryptophan scanned second generation peptide] | 5.9 nM | 34 nM | 15 nM | 5.6 | 3.3 nM | 52% | 4.6% | –
